Measured values reported in ChEMBL document CHEMBL1641485, “Chromone 3-phenylcarboxamides as potent and selective MAO-B inhibitors” (Bioorg Med Chem Lett, 2011).

Assays:
[1] = target: T1, Amine oxidase [flavin-containing] B (Homo sapiens, UniProt P27338); assay: Inhibition of human recombinant MAOB expressed in baculovirus-infected BTI insect cells at 100 uM after 15 mins by fluorimetric assay; details: 0.25 h
T1 sequence (P27338 whole entry): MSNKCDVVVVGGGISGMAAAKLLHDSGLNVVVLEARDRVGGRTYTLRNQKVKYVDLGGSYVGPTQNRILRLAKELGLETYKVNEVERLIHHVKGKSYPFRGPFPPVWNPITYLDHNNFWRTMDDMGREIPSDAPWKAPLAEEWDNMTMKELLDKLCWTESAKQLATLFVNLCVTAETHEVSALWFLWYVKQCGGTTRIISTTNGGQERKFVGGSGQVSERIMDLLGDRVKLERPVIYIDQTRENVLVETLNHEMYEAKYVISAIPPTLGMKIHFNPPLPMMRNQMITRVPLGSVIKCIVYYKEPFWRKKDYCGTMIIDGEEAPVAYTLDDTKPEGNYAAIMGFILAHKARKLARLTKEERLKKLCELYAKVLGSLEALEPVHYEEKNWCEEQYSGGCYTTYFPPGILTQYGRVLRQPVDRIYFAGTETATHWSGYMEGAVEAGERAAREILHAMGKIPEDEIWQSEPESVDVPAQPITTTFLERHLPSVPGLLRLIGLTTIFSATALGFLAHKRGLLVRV

[2] = target: T2, Amine oxidase [flavin-containing] A (Homo sapiens, UniProt P21397); assay: Inhibition of human recombinant MAOA expressed in baculovirus-infected BTI insect cells at 100 uM after 15 mins by fluorimetric assay; details: 0.25 h
T2 sequence (P21397 whole entry): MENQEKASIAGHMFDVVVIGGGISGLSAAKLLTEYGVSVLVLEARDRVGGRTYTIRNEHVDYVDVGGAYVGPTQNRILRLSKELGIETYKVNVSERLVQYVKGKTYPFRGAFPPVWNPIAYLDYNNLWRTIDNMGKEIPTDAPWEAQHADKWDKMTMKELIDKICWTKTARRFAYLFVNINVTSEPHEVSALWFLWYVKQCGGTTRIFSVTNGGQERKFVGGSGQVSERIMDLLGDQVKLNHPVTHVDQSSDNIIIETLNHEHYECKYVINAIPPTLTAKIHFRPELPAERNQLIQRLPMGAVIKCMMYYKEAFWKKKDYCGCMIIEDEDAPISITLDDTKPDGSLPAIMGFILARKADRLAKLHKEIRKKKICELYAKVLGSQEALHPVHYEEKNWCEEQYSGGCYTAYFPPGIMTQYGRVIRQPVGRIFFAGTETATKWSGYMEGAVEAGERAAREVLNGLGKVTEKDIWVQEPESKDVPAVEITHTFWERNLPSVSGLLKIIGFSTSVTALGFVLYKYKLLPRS

[3] = species: Homo sapiens; assay: Selectivity ratio of IC50 for human recombinant MAOA to IC50 for human recombinant MAOB
[4] = target: T1, Amine oxidase [flavin-containing] B; assay: Inhibition of human recombinant MAOB expressed in baculovirus-infected BTI insect cells after 15 mins by fluorimetric assay; type: cell-based

| SMILES | inhibition (INH) [1] | inhibition (INH) [2] | Ratio IC50 [3] | IC50 [4] |
| --- | --- | --- | --- | --- |
| COc1ccc(NC(=O)c2cc(=O)c3ccccc3o2)cc1 | Not Active | Not Active |  |  |
| O=C(Nc1ccc(I)cc1)c1cc(=O)c2ccccc2o1 | Not Active | Not Active |  |  |
| COc1ccc(NC(=O)c2coc3ccccc3c2=O)cc1 |  | Not Active | > 222 | 450 nM |
| CSc1ccc(NC(=O)c2coc3ccccc3c2=O)cc1 |  | Not Active | > 833 | 120 nM |
| Cc1ccc(NC(=O)c2cc(=O)c3ccccc3o2)cc1 | Not Active | Not Active |  |  |

Continued, values first:

| inhibition (INH) [1] | inhibition (INH) [2] | Ratio IC50 [3] | IC50 [4] | SMILES |
| --- | --- | --- | --- | --- |
| Not Active | Not Active |  |  | CSc1ccc(NC(=O)c2cc(=O)c3ccccc3o2)cc1 |
| Not Active | Not Active |  |  | O=C(Nc1ccccc1)c1cc(=O)c2ccccc2o1 |
